Laboratory results taken from patent publication US20210139844A1, “REPROGRAMMING FIBROBLASTS TO RETINAL CELLS” (UNIVERSITY OF NORTH TEXAS HEALTH SCIENCE CENTER, priority 2017, published 2021).
Entries after “also recorded” stand apart in the source; their conditions may differ.

How the values were obtained:
[1] = test system: HepG2 cells; details: treated for several days; cited from earlier work
[2] = test system: mitochondrial ROS; test: Measurement of mitochondrial ROS (MitoSox staining, fluorometry); format: cell-based, mouse
Description: Mitochondrial ROS activates NF-kB which controls CiPPC reprogramming by retrograde signaling. Next the inventors investigated the reasons behind NFkβ activation. Known inducers of NF-kB are highly variable including TNFα, LPS, Ionizing radiation and mitochondrial ROS (Formentini et al., Mol Cell 45:731-42, 2012; Andreakos et al., Blood 103:2229-37, 2004). […] So the inventors contemplated that mitochondrial ROS generated by small molecule treatment may activate NF-kB. […] The inventors found increased accumulation of mitochondrial ROS indicator mitosox during reprogramming starting from d5 compared to control MEFs (FIG. 6A, FIG. 6B and FIG. 6C). To measure the importance of mROS during chemical reprogramming, conversion experiments were performed in the presence of mitochondrial ROS scavenger, mitotempo.
Measurement of mitochondrial ROS. Mitochondrial ROS was detected and quantified. […] Cells were then washed twice with PBS and fluorescence has been monitored with a microplate reader set to 510 nm excitation (Ex bandwidth: 10 nm) and 595 nm emission (Em bandwidth 35 nm) wavelengths. mROS generation was also micrographed by Leica fluorescence microscope an quantified in Leica Application Suite X Software. […] Average intensity within each ROI was measured and exported to Excel data sheet. Average change in fluorescence was calculated for each type of cells. […]

[3] = test system: Nrl-GFP MEFs; test: Chemical reprogramming of Nrl-GFP MEFs to photoreceptor like cells (Nrl-GFP reporter); format: cell-based, mouse; details: for effect on reprogramming of removing the small molecule from the cocktail: small molecule subtracted from cocktail
Description: Identification of small molecules for derivation of photoreceptor-like cells (CiPPC). […] The inventors have exploited this phenomenon to find out additional small molecules those might be important for the determination of retinal neuron specific fate. An array of small molecule along with different medium compositions and time points has been tested as possible candidates. Mouse Embryonic Fibroblasts (MEFs) from a photoreceptor specific reporter mouse (Nrl-GFP) are used as starting cells for the reprogramming studies (Akimoto et al., PNAS 103:3890-95, 2006). If converted to photoreceptors, these MEFs would have GFP expression from the Nrl promoter. […] This conversion requires three additional factors Sonic Hedgehog (S), Taurine (T) and Retinoic acid (R) introduced on day 8 (d8) (FIG. 1A and FIG. 1B). […] The inventors have tested the importance of each small molecule in the reprogramming process by using Nrl-GFP MEFs as starting cells.
All small molecules diluted in DMSO according to manufacturer's instruction. On day 0 about 35000 MEFs were seeded in each well of a 24 well plate (0.1% gelatin coated for O/N). At day 1 change the medium with photoreceptor induction medium (PIM) with V (0.5 mM), C (4.8 μM), R (2 μM) F (10 βM). On day 3 change the medium (PIM) with V, C, R, F plus IWR1 (I, 10 βM). Change the medium (PIM) with VCRFI on d5 and d6. On day 8 add Sonichedgehog (S, 3 nM), taurine molecules and factors. Finally on day 11 cells with GFP expression were observed. For the differentiation replace the medium with photoreceptor differentiation medium (PDM) and keep them up to d15 to d16. […] Cells were fixed or analyzed on day 7.

[4] = test system: HFL1-Nrl-DsRed cells; test: Chemical reprogramming of human HFL1-Nrl-DsRed fibroblasts to photoreceptor like cells; format: cell-based; details: added during reprogramming
Description: Identification of small molecules for derivation of photoreceptor-like cells (CiPPC). To identify small molecules responsible for retinal neuron specific fate, the inventors followed previous studies describing a set of small molecules that can convert fibroblasts into neurons (Hu et al., Cell stem cell 17:204-12, 2015; Zhang et al., Cell stem cell 17:735-47, 2015; Fu et al., Cell research 25, 2015; Cheng et al., Cell research 25:1269-72, 2015). Four out of six small molecules described in these studies, Valproic acid (V), CHIR(C), Repsox (R) and Forskolin(F), are able to convert fibroblast cells into mixed progenitor stage (Fu et al., Cell research 25, 2015). The inventors have exploited this phenomenon to find out additional small molecules those might be important for the determination of retinal neuron specific fate. An array of small molecule along with different medium compositions and time points has been tested as possible candidates. Mouse Embryonic Fibroblasts (MEFs) from a photoreceptor specific reporter mouse (Nrl-GFP) are used as starting cells for the reprogramming studies (Akimoto et al., PNAS 103:3890-95, 2006). If converted to photoreceptors, these MEFs would have GFP expression from the Nrl promoter. […] This conversion requires three additional factors Sonic Hedgehog (S), Taurine (T) and Retinoic acid (R) introduced on day 8 (d8) (FIG. 1A and FIG. 1B). Human fibroblasts (HFL1, ATCC CCL153) can also be converted into photoreceptor like cells by these small molecules. The inventors first generated a HFL-1 cell line having a lentivirally transduced DsRed reporter downstream of Nrl promoter. Drug selected HFL1-Nrl-DsRed cells were used for the reprogramming by the previously described mouse specific protocol with some modifications (FIG. 1C). Round shaped and neuron like Nrl promoter driven DsRed positive cells were evident starting from d6 to d8 (FIG. 1D). […]
All small molecules diluted in DMSO according to manufacturer's instruction. […] Cells were fixed or analyzed on day 7.

Molecule	effect on reprogramming of removing the small molecule from the cocktail [3]	morphology of converted human photoreceptor like cells [4]	also measured
Oc1nc(-c2ccc(C(F)(F)F)cc2)nc2c1CSCC2 [XAV939]	–	–	axin stabilization [1]: can also stabilize the axin at cytosol
O=C(Nc1cccc2cccnc12)c1ccc(N2C(=O)[C@@H]3[C@H](C2=O)[C@@H]2C=C[C@H]3C2)cc1 [IWR1, N-(Quinolin-8-yl)-4-(exo-4-aza-3,5-dioxotricyclo[5.2.1.02,6]oct-8-en-4-yl)benzamide]	worst effect on reprogramming process; also recorded: reduced the reprogramming efficiency	–	mROS generation in reprogramming without the small molecule ([2]; d8): did not show increase in mROS generation; conversion of GFP negative MEFs into GFP+ photoreceptor like cells ([3]; in presence of VCRF, d10 to d11, S, T, R introduced on d8): can covert GFP negative MEFs into GFP^+ positive round shaped photoreceptor like cells
Cc1cnc(-c2cnc(NCCNc3ccc(C#N)cn3)nc2-c2ccc(Cl)cc2Cl)[nH]1 [CHIR, 6-[2-[[4-(2,4-dichlorophenyl)-5-(5-methyl-1H-imidazol-2-yl)pyrimidin-2-yl]amino]ethylamino]-pyridine-3-carbonitrile]	worst effect on reprogramming process	–	–
Cc1cccc(-c2n[nH]cc2-c2ccc3ncccc3n2)n1 [Repsox, 2-(3-(6-Methylpyridin-2-yl)-1H-pyrazol-4-yl)-1,5-naphthyridine]	worst effect on reprogramming process	–	–
CC1(C)CC(NC(=O)C[P+](c2ccccc2)(c2ccccc2)c2ccccc2)CC(C)(C)N1[O] [mitotempo]	–	–	mROS generation upon scavenger treatment ([2]; mitoSox staining, fluorometric analysis): decrease of mROS generation; yield of reprogrammed cells ([3]; conversion in presence of mROS scavenger, printed as 'significantly decreased yield ... (20%)'): 20%; number of Nrl-GFP+ reprogrammed cells at different concentrations ([3]; data not shown): dose dependent relationship
BDNF: factor added during human cell reprogramming (protein, UniProt P23560 129-247, looked up, Neurotrophic factor BDNF, factor added during human cell reprogramming) Neurotrophic factor BDNF: HSDPARRGELSVCDSISEWVTAADKKTAVDMSGGTVTVLEKVPVSKGQLKQYFYETKCNPMGYTKEGCRGIDKRHWNSQCRTTQSYVRALTMDSKKRIGWRFIRIDTSCVCTLTIKRGR	–	helped these converted human photoreceptor like cells to have a healthy morphology	–
GDNF: factor added during human cell reprogramming (protein, UniProt P39905 78-211, looked up) Glial cell line-derived …: SPDKQMAVLPRRERNRQAAAANPENSRGKGRRGQRGKNRGCVLTAIHLNVTDLGLGYETKEELIFRYCSGSCDAAETTYDKILKNLSRNRRLVSDKVGQACCRPIAFDDDLSFLDDNLVYHILRKHSAKRCGCI	–	helped these converted human photoreceptor like cells to have a healthy morphology	–
NT3: factor added during human cell reprogramming (protein, UniProt P20783 139-257, looked up, Neurotrophin-3, factor added during human cell reprogramming) Neurotrophin-3: YAEHKSHRGEYSVCDSESLWVTDKSSAIDIRGHQVTVLGEIKTGNSPVKQYFYETRCKEARPVKNGCRGIDDKHWNSQCKTSQTYVRALTSENNKLVGWRWIRIDTSCVCALSRKIGRT	–	helped these converted human photoreceptor like cells to have a healthy morphology	–
